Columns and labels:
[1] = target: T1, human C-terminal DNMT3A (a.a. 623-908) (Homo sapiens, UniProt Q9Y6K1); experiment: hDNMT3A restriction-based fluorescence assay; assay type: biochemical; settings: for inhibition at 10 µM / inhibition at 32 µM: read-out: hDNMT 3A inhibition, Inhibition (%); for EC50: brackets: 95% confidence interval, read-out: hDNMT 3A inhibition EC50
T1 construct: The human C-terminal DNMT3A (a.a. 623-908); made in house
Text: hDNMT3A enzyme inhibition was adapted from the restriction-based fluorescence assay protocol as described in the literature (Ceccaldi et al. ChemBioChem 2011, 12, 1337-1345). Briefly, a 5′-labelled biotin oligonucleotide is hybridized to its complementary strand labelled with 6-carboxyfluorescein at the 3′-end into a 384 well microplate (black Optiplates; Perkin Elmer) pre-coated with avidin. The duplex contains a unique CpG site overlapping with a restriction site of a methylation sensitive restriction enzyme. The human C-terminal DNMT3A (a.a. 623-908), produced as described in the literature (Gros et al. Nucl. Acids Res. 2013, 41(19):e185), was added in each well (200 ng/well) and mixed with the chemical compounds at desired concentrations and freshly prepared AdoMet (20 μM final concentration) to start the reaction in a total volume of 50 μL. After 1 hour incubation at 37° C. each well were washed three times with PBS, Tween-20 0.05%, NaCl (500 mM) and three more times with PBST. Specific fluorescent signals were detected with the methylation-sensitive restriction enzyme HpyCH4IV (NEB) as described and measured on a Perkin Elmer Envision detector. The percentage of inhibition is reported. The formula used to calculate the percentage of inhibition is [(X−Y)/X]×100, where X is the signal determined in the absence of the inhibitor and Y is the signal obtained in the presence of the inhibitor. The concentration at which 50% of efficacy of inhibition is observed (EC50) was determined by analysis of a concentration range of the tested compound in triplicates. The non-linear regression fittings with sigmoidal dose-response (variable slope) were performed with GraphPad Prism 4.03 (GraphPad Software).

[2] = tested on: luciferase reporter under the control of a methylated CMV promoter in leukemia KG-1 cells; experiment: CMV-luc reexpression (luciferase reporter) in KG-1 cells; assay type: cell-based, human; settings: 24 hour incubation, fold induction vs DMSO, mean ± standard error
Protocol: Aiming at identifying new DNMT inhibitors, plant extract samples were tested for their ability to reactivate gene expression upon use of an integrated luciferase reporter system under the control of a methylated CMV promoter in leukemia KG-1 cells which inhibits its expression (CMV-luc assay reported in following Table). […] The extract was fractionated by preparative HPLC. Identification of the active components was accomplished by HRMS and NMR spectroscopy. The pure compounds isolated from the extract through bio-guided fractionation are trilobine and bisbenzylisoquinoline analogue products. The active compounds were then further evaluated for their ability to inhibit DNMTs in vitro and DNA methylation in cancer cells.
KG-1 cells were stably transfected with the firefly luciferase reporter gene (luc+ from pGL3; Promega) under the control of the cytomegalovirus (CMV) promoter (from pEGFP-N1; Clontech Laboratories Inc.) partially methylated (50%). 20,000 cells per well were seeded in a 96-well plate. After 24 hour incubation in the presence of the test compound or solvant (DMSO), the induction of the promoter was measured by quantification of the luciferase signal with the Brite-lite assay system (PerkinElmer) according to the manufacturer's protocol. The luminescence was measured on an EnVision multilabel plate reader (PerkinElmer), and the data are expressed as the fold induction as compared with the DMSO control. The mean of three experiments and the standard error is reported.

[3] = target: T2, His-DNMT1 (182 kDa, human) (Homo sapiens, UniProt P26358); experiment: hDNMT1 assay ([methyl-3H] SAM Flashplate); assay type: biochemical; settings: read-out: hDNMT1 percentage of inhibition
T2 construct: His; made in house
T2 sequence (P26358 whole entry): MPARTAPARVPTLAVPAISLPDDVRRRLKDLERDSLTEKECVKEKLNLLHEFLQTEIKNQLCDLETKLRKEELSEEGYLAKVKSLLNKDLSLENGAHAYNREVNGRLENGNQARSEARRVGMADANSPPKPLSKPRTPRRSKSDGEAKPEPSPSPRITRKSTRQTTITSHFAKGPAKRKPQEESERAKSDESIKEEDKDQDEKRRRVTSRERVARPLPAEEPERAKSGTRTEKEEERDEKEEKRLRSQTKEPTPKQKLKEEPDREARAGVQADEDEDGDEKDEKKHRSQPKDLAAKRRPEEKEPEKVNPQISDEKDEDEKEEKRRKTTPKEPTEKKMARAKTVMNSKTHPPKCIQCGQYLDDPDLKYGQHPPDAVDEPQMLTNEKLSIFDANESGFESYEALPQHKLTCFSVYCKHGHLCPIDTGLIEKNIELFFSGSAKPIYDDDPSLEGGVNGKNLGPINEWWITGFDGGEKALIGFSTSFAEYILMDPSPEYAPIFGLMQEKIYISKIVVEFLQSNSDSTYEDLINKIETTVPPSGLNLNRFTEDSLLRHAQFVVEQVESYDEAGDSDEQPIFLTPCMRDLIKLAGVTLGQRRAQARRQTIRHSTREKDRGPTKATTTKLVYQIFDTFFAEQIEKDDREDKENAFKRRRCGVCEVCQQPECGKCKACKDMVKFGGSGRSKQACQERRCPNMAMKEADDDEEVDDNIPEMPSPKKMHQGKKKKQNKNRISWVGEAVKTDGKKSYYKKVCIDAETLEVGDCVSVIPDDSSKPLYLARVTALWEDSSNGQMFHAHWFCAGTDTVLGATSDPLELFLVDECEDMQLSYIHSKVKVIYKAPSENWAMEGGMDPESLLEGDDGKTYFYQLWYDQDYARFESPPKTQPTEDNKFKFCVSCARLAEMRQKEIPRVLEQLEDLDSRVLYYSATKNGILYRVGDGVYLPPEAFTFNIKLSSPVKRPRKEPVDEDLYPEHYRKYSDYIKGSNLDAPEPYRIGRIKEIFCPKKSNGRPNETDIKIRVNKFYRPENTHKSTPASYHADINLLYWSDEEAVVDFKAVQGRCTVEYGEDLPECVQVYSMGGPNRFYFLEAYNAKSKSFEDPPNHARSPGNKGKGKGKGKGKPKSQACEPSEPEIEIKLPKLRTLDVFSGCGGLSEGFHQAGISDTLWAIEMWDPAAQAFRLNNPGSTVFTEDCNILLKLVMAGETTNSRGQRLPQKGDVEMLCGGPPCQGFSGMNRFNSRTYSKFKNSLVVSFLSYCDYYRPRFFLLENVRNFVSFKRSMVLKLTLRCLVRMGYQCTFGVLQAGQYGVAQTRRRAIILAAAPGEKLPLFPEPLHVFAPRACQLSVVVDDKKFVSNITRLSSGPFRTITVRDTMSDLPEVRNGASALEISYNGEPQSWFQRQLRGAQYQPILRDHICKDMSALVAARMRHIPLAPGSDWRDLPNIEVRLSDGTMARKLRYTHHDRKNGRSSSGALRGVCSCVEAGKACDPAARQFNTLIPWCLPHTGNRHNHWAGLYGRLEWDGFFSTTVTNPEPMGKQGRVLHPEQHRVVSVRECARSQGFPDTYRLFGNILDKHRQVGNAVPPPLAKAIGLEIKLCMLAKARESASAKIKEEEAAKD
Protocol: His-DNMT1 (182 kDa, human) was cloned, expressed and purified as described in the literature (Halby et al. ChemBioChem 2012, 13, 157-165). The reaction was performed in a […] total reaction volume in low volume NBS™ 384-well microplates (Corning), containing the tested compound (up to 1% DMSO), 1 μM of a SAM/[methyl-^3H] SAM (3 TBq/mmol, PerkinElmer) mix in a ratio of 3-to-1 (isotopic dilution 1*:3), 0.3 μM of biotinylated hemimethylated DNA duplex (5′-GATmCGCmCGATGmCGmCGAATmCGmCGATmCGATGmCGAT-3′ and BIOT-5′-[…]-3′), and 90 nM of DNMT1 in methylation buffer (20 mM HEPES pH 7.2, 1 mM EDTA, 50 mM KCl, 25 μg/mL BSA). The reaction was incubated at 37° C. for 2 hours. 8 μL, are then transferred into a streptavidin 96-well scintillant coated Flashplate™ (PerkinElmer) containing 190 μL of 20 μM SAH in 50 mM Tris-HCl pH 7.4. The Flashplate™ was agitated at room temperature for 1 hour and read in 200 μL of 50 mM Tris-HCl pH 7.4 on TopCount NXT (PerkinElmer). The percentage of inhibition is reported. The formula used to calculate the percentage of inhibition is [(X−Y)/X]×100, where X is the signal determined in the absence of the inhibitor and Y is the signal obtained in the presence of the inhibitor.

T1 sequence (Q9Y6K1 627-912): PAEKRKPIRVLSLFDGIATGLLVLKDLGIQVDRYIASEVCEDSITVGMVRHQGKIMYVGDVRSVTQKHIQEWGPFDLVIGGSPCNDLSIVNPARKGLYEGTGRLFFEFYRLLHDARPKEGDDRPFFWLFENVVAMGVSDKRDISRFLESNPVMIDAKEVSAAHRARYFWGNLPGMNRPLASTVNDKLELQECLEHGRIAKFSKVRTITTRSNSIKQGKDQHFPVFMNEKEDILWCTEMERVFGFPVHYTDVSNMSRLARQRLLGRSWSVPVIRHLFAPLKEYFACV

| Compound | inhibition at 10 µM [1] | inhibition at 32 µM [1] | EC50 [1] | Reactivation fold of luciferase gene reporter in KG-1 CMV-Luc ([2]; 0.1 μM) | Reactivation fold of luciferase gene reporter in KG-1 CMV-Luc ([2]; 0.32 μM) | Reactivation fold of luciferase gene reporter in KG-1 CMV-Luc ([2]; 0.5 μM) | Reactivation fold of luciferase gene reporter in KG-1 CMV-Luc ([2]; 1 μM) | Reactivation fold of luciferase gene reporter in KG-1 CMV-Luc ([2]; 3.2 μM) | Reactivation fold of luciferase gene reporter in KG-1 CMV-Luc ([2]; 5 μM) | Reactivation fold of luciferase gene reporter in KG-1 CMV-Luc ([2]; 10 μM) | inhibition at 32 µM [3] |
| --- | --- | --- | --- | --- | --- | --- | --- | --- | --- | --- | --- |
| COc1ccc2cc1Oc1ccc(cc1)C[C@H]1c3c(cc(OC)c4c3Oc3cc5c(cc3O4)CCN(C)[C@H]5C2)CCN1C [Compound 2, Isotrilobine] | 56% | 76% |  | 1.0 ± 0.1 fold | 2.4 ± 1.4 fold | 2.8 ± 0.8 fold | 3.6 ± 2.9 fold | 2.4 ± 0.7 fold | 3.1 ± 0.6 fold | 6.1 ± 0.5 fold |  |
| COc1ccc2cc1Oc1ccc(cc1)C[C@H]1c3c(cc(OC)c4c3Oc3cc5c(cc3O4)CCN[C@H]5C2)CCN1C [Compound 3, O-Methylcocsoline] | 95% | 100% |  |  |  |  |  |  |  |  |  |
| COc1ccc2cc1Oc1ccc(cc1)C[C@@H]1NCCc3cc(OC)c4c(c31)Oc1cc3c(cc1O4)CCN[C@H]3C2 [Compound 7, Nortrilobine] | 83% | 94% |  | 1.1 ± 0.2 fold | 1.7 ± 0.5 fold | 1.9 ± 1.3 fold | 2.6 ± 1.8 fold | 5.4 ± 2.6 fold | 12.3 ± 1.2 fold | cyt. tox.. | 99% |
| COc1cc2c3c4c1Oc1cc5c(cc1O4)[C@H](Cc1ccc(O)c(c1)Oc1ccc(cc1)C[C@@H]3NCC2)N(C)CC5 [Compound 5, 2′-Norcocsuline] | 73% | 88% |  | 1.0 ± 0.2 fold | 2.3 ± 0.7 fold | 2.1 ± 0.6 fold | 2.6 ± 1.6 fold | 3.9 ± 0.4 fold | 5.1 ± 0.1 fold | cyt. tox. |  |

Now from value to compound, other results behind:

| inhibition at 10 µM [1] | inhibition at 32 µM [1] | EC50 [1] | Compound | Reactivation fold of luciferase gene reporter in KG-1 CMV-Luc ([2]; 0.1 μM) | Reactivation fold of luciferase gene reporter in KG-1 CMV-Luc ([2]; 0.32 μM) | Reactivation fold of luciferase gene reporter in KG-1 CMV-Luc ([2]; 0.5 μM) | Reactivation fold of luciferase gene reporter in KG-1 CMV-Luc ([2]; 1 μM) | Reactivation fold of luciferase gene reporter in KG-1 CMV-Luc ([2]; 3.2 μM) | Reactivation fold of luciferase gene reporter in KG-1 CMV-Luc ([2]; 5 μM) | Reactivation fold of luciferase gene reporter in KG-1 CMV-Luc ([2]; 10 μM) | inhibition at 32 µM [3] |
| --- | --- | --- | --- | --- | --- | --- | --- | --- | --- | --- | --- |
| 41% | 68% | > 10 µM | COc1cc2c3c4c1Oc1cc5c(cc1O4)C(=NCC5)Cc1ccc(O)c(c1)Oc1ccc(cc1)C[C@@H]3N(C)CC2 [Compound 8, 1,2-Dehydroapateline] |  |  |  |  |  |  |  |  |
| 37% | 63% | > 10 µM | COc1ccc2cc1Oc1ccc(cc1)C[C@H]1c3c(cc(OC)c4c3Oc3cc5c(cc3O4)CCN=C5C2)CCN1C [Compound 9, 1,2-Dehydrotelobine] |  |  |  |  |  |  |  |  |
| 23% | 66% | > 10 µM | COc1cc2c3c4c1Oc1cc5c(cc1O4)[C@H](Cc1ccc(O)c(c1)Oc1ccc(cc1)C[C@@H]3N(C)CC2)N(C)CC5 [Compound 4, Cocsuline] |  |  |  |  |  |  |  |  |
| 37% | 91% | > 10 µM | COc1cc2c3c4c1Oc1cc5c(cc1O4)[C@H](Cc1ccc(O)c(c1)Oc1ccc(cc1)C[C@@H]3N(C)CC2)NCC5 [Compound 6, Cocsoline] |  |  |  |  |  |  |  |  |

— patent publication US10517863B2, “Trilobine and its natural analogs for use as a drug” (PIERRE FABRE MEDICAMENT, priority 2015, dated 2019)
